Experimental data published in patent US8980899B2, “Methods of inhibiting Ire1” (The Regents of the University of California, priority 2009, dated 2015).

What was measured:
[1] = system: Ire1 (XBP-1 YFP reporter in IMR90 cells); assay: Cell-based IRE1 inhibition assay with human fibroblasts (IMR90), XBP-1 YFP reporter; settings: compound 2 uM, 8 hrs
Procedure: FIG. 6 depicts histogram results of cell-based Ire1 inhibition assay employing IMR90 human diploid fibroblastic cell line. […] Induction of XBP-1 YFP reporter was assayed by fluorescence microscopy. See Example 6. Test compounds (left to right): DMSO; Tg; bortezomib; MG132; Irestatin; AD71c; AD73c; AD58; AD59. Ordinate: relative fluorescence (proportional to Ire1 activity.)
A cell-based assay of Ire1 inhibition was conducted on human diploid fibroblastic cells (IMR90) expressing an XBP-1 YFP (yellow fluorescent protein) reporter. The effect of test compound or control on UPR induction was assayed by fluorescence microscopy to measure the fluorescence of YFP expressed in a Ire1-dependent manner. The XBP1-YFP reporter only produces YFP after a frameshift produced by splicing of its intron by activated IRE1. As known in the art, higher fluorescence intensity means higher Ire1 and UPR activity. Conversely, lower fluorescence intensity means inhibitions of Ire1 and UPR.
IMR90 stable retroviral transductants expressing an XBP-1 YTP reporter were plated in a 96 well clear bottom plate and allowed to recover overnight (80% confluency). […] Induction of the XBP1-YFP reported was assayed by fluorescence microscopy (GE Healthcare IN Cell Analyzer 2000). The number of YFP cells and the total number of cells, as judged by nuclear staining (Hoechst) were counted in each well. […]

[2] = biological target: Recombinant human Ire1-alpha (Homo sapiens, UniProt O75460); assay: In vitro inhibition assay, cleavage of 32P-stem-loop RNA by human Ire1; format: biochemical; settings: in vitro cleavage of 32P-stem-loop RNA by human Ire1, AD series; Control (no inhibitor) 8.8310e−3
Procedure: Recombinant human […]) was mixed with reaction buffer, inhibitor solution in DMSO, and ^32P-labeled RNA substrate having sequence 5'-[…] NO:1). Reactions were conducted at 30° C. and initiated by adding the RNA to reaction pre-mix containing all the components minus the RNA. […] (The reaction mixture may be modified by using different components or concentrations, different RNA substrate, or different Ire1 protein construct.) At time intervals (0 seconds, 10 seconds, 30 seconds, and 3 minutes), 1 μl aliquots of reaction mixture were taken and quenched in 10 M Urea, 0.1% SDS. Samples were analyzed by denaturing polyacrylamide gel electrophoresis and quantified using Typhoon phosphorImager. […] Reactions with Irestatin and exemplary compounds were conducted analogously. Irestatin was a gift obtained from the SPECS screen available as 5 mM solution in DMSO at UCSF small molecule discovery center.

[3] = biological target: T1, yIre1 (Saccharomyces cerevisiae, UniProt P32361); assay: RNase cleavage assay (yIre1 activation); format: biochemical, yeast; settings: yIre1 RNA cleavage, 30° C., 2 mM ADP; Control (no inhibitor) 0.000504
T1 sequence (P32361 19-1115): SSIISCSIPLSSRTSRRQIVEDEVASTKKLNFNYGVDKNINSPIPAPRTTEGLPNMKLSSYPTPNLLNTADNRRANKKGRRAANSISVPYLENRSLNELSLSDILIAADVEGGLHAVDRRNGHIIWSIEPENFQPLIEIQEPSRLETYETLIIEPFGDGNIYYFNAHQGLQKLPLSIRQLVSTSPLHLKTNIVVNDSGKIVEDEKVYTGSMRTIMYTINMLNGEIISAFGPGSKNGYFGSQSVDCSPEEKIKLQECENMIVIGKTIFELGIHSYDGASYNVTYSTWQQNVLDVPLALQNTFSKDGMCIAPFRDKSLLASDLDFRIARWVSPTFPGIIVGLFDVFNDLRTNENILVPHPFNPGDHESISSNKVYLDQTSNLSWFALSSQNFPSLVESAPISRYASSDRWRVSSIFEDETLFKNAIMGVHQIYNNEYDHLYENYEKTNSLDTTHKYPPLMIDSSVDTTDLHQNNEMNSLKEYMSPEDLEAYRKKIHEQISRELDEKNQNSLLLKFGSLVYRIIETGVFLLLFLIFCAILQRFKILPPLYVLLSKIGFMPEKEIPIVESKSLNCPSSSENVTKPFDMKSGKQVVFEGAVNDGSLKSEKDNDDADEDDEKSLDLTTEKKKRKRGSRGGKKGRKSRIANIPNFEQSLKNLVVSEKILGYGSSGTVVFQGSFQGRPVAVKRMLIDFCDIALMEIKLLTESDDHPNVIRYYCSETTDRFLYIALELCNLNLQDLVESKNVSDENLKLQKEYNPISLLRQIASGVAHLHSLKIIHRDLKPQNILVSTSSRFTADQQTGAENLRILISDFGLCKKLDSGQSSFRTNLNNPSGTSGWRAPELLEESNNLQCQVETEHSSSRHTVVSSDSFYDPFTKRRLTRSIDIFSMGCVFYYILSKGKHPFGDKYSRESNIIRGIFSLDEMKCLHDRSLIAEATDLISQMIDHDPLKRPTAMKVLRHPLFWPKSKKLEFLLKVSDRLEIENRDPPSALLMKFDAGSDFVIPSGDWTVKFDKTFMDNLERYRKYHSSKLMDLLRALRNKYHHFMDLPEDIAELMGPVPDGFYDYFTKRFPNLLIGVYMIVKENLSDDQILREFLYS
Procedure: RNA cleavage reactions were conducted at 30° C. in buffer containing 20 mM HEPES (pH 7.5), 70 mM NaCl, 2 mM ADP (pH 7.0), 2 mM Mg(OAc)2, 5 mM DTT, 5% glycerol, less than 1 nM ^32p-labeled RNA substrate, and 3 nM-[…] Ire1. Reaction solutions and buffers were designed using Biochem Lab Solutions 3.5. Reactions were prepared such that 1 μl of RNA was added to 9 μl of pre-warmed reaction mixture containing all components except RNA. Typically, 3-10 minute time courses were collected starting from 5 seconds for the first time point. At time intervals, 1 μl of solution was withdrawn from each reaction and mixed with 6 μl stop solution containing 10 M urea, 0.1% SDS, 0.1 mM EDTA, 0.05% xylene cyanol, and 0.05% bromophenol blue. The samples were separated by a denaturing 10% PAGE and exposed on a phosphor storage screen. The screens were scanned on a Storm or a Typhoon instrument and quantified using ImageQuant 5.0 or GelQuant.NET 1.4 programs. The data were plotted and fit in SigmaPlot 6.0.

[4] = biological target: hIre1 (Homo sapiens, UniProt O75460); assay: Titrations of Ire1 inhibitors to measure Ki using 1 μM hIre1; format: biochemical; settings: 1 μM hIre1, 5′-32p-HP21, 30° C.
Procedure: Recombinant human Ire1-alpha (1 μM f/c) was mixed with reaction buffer, inhibitor solution in DMSO, and ^32P-labeled RNA substrate having sequence 5′-UGCACCUCUGCAGCAGGUGCA (SEQ ID NO:1). Reactions were conducted at 30° C. and initiated by adding the RNA to reaction pre-mix containing all the components minus the RNA. The final reaction contained: 20 mM HEPES pH 7, 70 mM NaCl, 2 mM MgCl2, 5% glycerol, 4 mM DTT, 10% DMSO, 1 μM Ire1 and <1 nM 32P-labeled RNA. (The reaction mixture may be modified by using different components or concentrations, different RNA substrate, or different Ire1 protein construct.)
At time intervals (0 seconds, ˜10 seconds, ˜30 seconds, and ˜3 minutes), 1 μl aliquots of reaction mixture were taken and quenched in 10 M Urea, 0.1% SDS. Samples were analyzed by denaturing polyacrylamide gel electrophoresis and quantified using Typhoon phosphorImager.
Inhibition was measured by the extent of RNA cleavage slowdown in the presence of inhibitor (0.3-100 μM) compared to reaction containing no inhibitors.

[5] = system: Ire1 (XBP-1 luciferase reporter in MEFS); assay: Cell-based IRE1 inhibition assay with mouse embryonic fibroblasts, XBP-1 luciferase reporter; settings: compound 5 uM, 8 hrs
Procedure: FIG. 5 depicts histogram results of cell-based Ire1 inhibition assay in mouse embryonic fibroblasts (MEFS). Primary MEFS isolated from a transgenic mouse expressing an XBP1 luciferase reporter were incubated with either thapsigargin (Tg) or tunicamycin (Tm) in the absence or presence of test compound or control. See Example 5. Treatment order in histogram (left to right): no compound, AD73c at 5 uM, mitoxan (10 uM). Incubation conditions (left to right): DMSO, Tg (600 nM), Tm (2.6 ug/mL). Legend: RL: relative luminosity (arbitrary units); DMSO (no fill); Tg (diagonal stripe); Mitoxan (diamond fill).
A cell-based assay of Ire1 inhibition was conducted on mouse embryonic fibroblasts (MEFS) isolated from a transgenic mouse expressing an XBP-1 luciferase reporter (Riken Research, Japan). The XBP-1 luciferase reporter produces a frameshift and production of luciferase only after splicing of the intron by activated IRE1. […]
Primary MEFs expressing an XBP1 luciferase reporter were plated in a 96 well white plate and allowed to recover overnight (80% confluency). […] Luciferase activity was measured by the additional of 50 uL of One-Glo™ Luciferase Assay System (Promega), and the relative luminescence was quantitated using a luminometer (Analyst).
As depicted in the histogram of FIG. 5, the luminescence of luciferase expressed in Ire1-dependent assay was measured to assess Ire1 and UPR activity. […]

Chain of hIre1 (O75460 19-977): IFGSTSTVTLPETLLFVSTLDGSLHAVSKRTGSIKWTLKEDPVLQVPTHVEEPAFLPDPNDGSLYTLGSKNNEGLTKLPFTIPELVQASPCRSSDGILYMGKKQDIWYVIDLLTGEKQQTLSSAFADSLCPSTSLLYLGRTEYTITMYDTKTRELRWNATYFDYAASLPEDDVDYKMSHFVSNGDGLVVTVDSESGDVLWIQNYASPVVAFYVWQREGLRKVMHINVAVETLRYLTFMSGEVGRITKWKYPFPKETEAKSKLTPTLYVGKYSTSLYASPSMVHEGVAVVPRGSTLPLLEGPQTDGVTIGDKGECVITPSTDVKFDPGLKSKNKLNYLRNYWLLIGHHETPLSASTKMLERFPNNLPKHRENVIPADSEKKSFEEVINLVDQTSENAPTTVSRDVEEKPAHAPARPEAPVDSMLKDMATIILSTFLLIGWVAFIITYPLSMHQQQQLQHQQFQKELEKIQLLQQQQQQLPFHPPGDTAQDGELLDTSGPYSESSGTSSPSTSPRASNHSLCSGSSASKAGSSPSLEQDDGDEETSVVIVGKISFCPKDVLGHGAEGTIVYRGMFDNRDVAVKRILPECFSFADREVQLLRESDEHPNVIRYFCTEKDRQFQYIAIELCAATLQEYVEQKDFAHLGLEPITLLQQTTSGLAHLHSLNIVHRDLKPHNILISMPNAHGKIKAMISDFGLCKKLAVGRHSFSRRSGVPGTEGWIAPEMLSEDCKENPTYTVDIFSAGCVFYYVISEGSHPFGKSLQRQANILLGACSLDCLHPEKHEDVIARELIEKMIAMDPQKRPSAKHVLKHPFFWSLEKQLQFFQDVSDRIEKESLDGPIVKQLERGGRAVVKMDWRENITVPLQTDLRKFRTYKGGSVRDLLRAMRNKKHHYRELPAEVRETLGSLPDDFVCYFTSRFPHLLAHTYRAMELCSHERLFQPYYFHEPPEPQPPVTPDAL
Chain of Recombinant human Ire1-alpha (O75460 19-977): as above

Compound	inhibition of UPR (XBP-1 YFP reporter) induced by Tg [1]	Ire1 activity [2]	Ire1 activity [3]	Ki [4]	rate suppression [4]	inhibition of XBP1 luciferase induction by thapsigargin (Tg) ([5]; Tg 600 nM)	inhibition of XBP1 luciferase induction by tunicamycin (Tm) ([5]; Tm 2.5 ug/mL)
CC(C)n1nc(-c2ccc(NC(=O)Nc3ccccc3)cc2)c2c(N)ncnc21 [AD58]	inhibit UPR						
Cn1nc(-c2ccc(NC(=O)Nc3cccc(C(F)(F)F)c3)cc2)c2c(N)ncnc21 [AD59, 1-(4-(4-amino-1-methyl-1H-pyrazolo[3,4-d]pyrimidin-3-yl)phenyl)-3-(3-(trifluoromethyl)phenyl)urea]	even more strongly	3.0550e−3	0.0001	~1000 nM			
Nc1ncnc2c1c(-c1ccc(NC(=O)Nc3cccc(C(F)(F)F)c3)cc1)nn2[C@@H]1CCN(C(=O)Nc2cccc(C(F)(F)F)c2)C1 [AD73c]		2.9310e−4			100 fold	strongly inhibit	strongly inhibit
